Test system: ÜBERGEWICHTIGEN FRAUEN
Assay: Three-year placebo-controlled prophylaxis study: incidence of diabetes mellitus in overweight persons with impaired oral glucose tolerance
Type: in vivo, Patienten
Conditions: for DIABETES MELLITUS (ERKRANKUNGSRATE AN DIABETES MELLITUS): number of cases (WHO definition), 2 X 3 mg tgl.
Text: Es wurden 122 übergewichtigte Personen ausgesucht, die im Mittel 25 % Übergewicht und eine gestörte orale Glukosetoleranz hatten. Diese Patienten gaben nach Aufklärung ihr Einverständnis an dieser Studie über 3 Jahre teilzunehmen. Sie hatten bereits 5 bis 10 Versuche einer Gewichtsabnahme hinter sich, die alle erfolglos verlaufen waren. Ein Diabetes mellitus war nach der Definition des World Health Organization-Reports (Techn. Rep. Ser. 646, 1-80, 1980), bei diesen Patieten ausgeschlossen. Sie wurden in zwei gleich starke Gruppen eingeteilt, so daß nach Alter, Ausmaß der Störung des Glucose-Toleranz-Tests (OGTT) und Größe und Dauer des Übergewichts kein Unterschied bestand. Die Patienten wurden in halbjährlichen Abständen ambulant kontrolliert. Wie zu Beginn, wurden bei diesen Kontrollen folgende Blutwerte gemessen: Blutsenkung, Blutbild, Nüchternblutzucker, OGTT, Gewicht, Cholesterin und Triglyzeride, Serum Glutamat-Oxalat-Transaminase (SGOT), Serum Glutamat-Pyruvat Transaminase (SGPT). Damit wurden den Stoffwechesl beeinträchtigende Krankheiten ausgeschlossen.
Sie erste Gruppe erhielt 2 x 3 mg Captopril täglich, die zweite entsprechend Placebo. Die Patienten hatten die Auflage, keine den Stoffwech l beeinträchtigende Medikamente, z.B. Diuretika, β-Blocker ode dergleichen einzunehmen. In beiden Gruppen schieden über den Zeitraum von 3 Jahren 28 Patienten aus verschiede nen Gründen aus. Die Gruppen veränderten sich dadurch jedoch nicht so, daß sie statistisch nicht mehr auswertbar waren.

## C[C@H](CS)C(=O)N1CCC[C@H]1C(=O)O [Captopril, 1-[(2S)-3-Mercapto-2-methylpropionyl]-L-prolin]
Nach 3 Jahren, versus placebo, 2 x 3 mg täglich, p < 0,001 (Student's t-Test)
  Erkrankungsrate an Diabetes mellitus: geringere Erkrankungsrate an Diabetes mellitus
ZEITRAUM 1985 -1 (start), 63 in group
  DIABETES MELLITUS (ERKRANKUNGSRATE AN DIABETES MELLITUS): 0
ZEITRAUM 1986 - 2, 60 in group
  DIABETES MELLITUS (ERKRANKUNGSRATE AN DIABETES MELLITUS): 2
ZEITRAUM 1987 - 2, 54 in group
  DIABETES MELLITUS (ERKRANKUNGSRATE AN DIABETES MELLITUS): 4
ZEITRAUM 1988 - 1, 48 in group, placebo 11 of 46, p< 0,001
  DIABETES MELLITUS (ERKRANKUNGSRATE AN DIABETES MELLITUS): 4
Risk groups (strongly overweight, older than 50 years; risk about 45 % over two years), 2 x 3 mg pro Tag
  Verminderung dieses Risikos (an Diabetes mellitus zu erkranken): > 50%

From patent EP0331014A2, “Use of ACE inhibitors in diabetes prophylaxis” (THERA - Patent Verwaltungs-GmbH, priority 1988, dated 1989)
